In brackets after ≈: the same amount, converted by molar mass. Where two headings read alike, the source gives them in different places.
Assays:
[1] = test system: Acinetobacter baumannii NCTC 13420; assay: MIC, broth microdilution (CLSI); type: cell-based; settings: A. baumannii NCTC 13420, 16-20 h, mode of three experiments
[2] = test system: Acinetobacter baumannii ATCC 19606; assay: MIC, broth microdilution (CLSI); type: cell-based; settings: A. baumannii ATCC 19606, 16-20 h, mode of three experiments
[3] = test system: Enterobacter cloacae NCTC 13406; assay: MIC, broth microdilution (CLSI); type: cell-based; settings: E. cloacae NCTC 13406, 16-20 h, mode of three experiments
[4] = test system: Escherichia coli ATCC 25922; assay: MIC, broth microdilution (CLSI); type: cell-based; settings: E. coli ATCC 25922, 16-20 h, mode of three experiments
[5] = test system: E. coli ATCC BAA-2452; assay: MIC, broth microdilution (CLSI); type: cell-based, Escherichia coli; settings: 16-20 h, mode of three experiments
[6] = test system: E. coli NCTC 13476; assay: MIC, broth microdilution (CLSI); type: cell-based, Escherichia coli; settings: mode of three experiments
[7] = test system: E. coli MG1655 WT; assay: MIC, broth microdilution (CLSI); type: cell-based, Escherichia coli; settings: E. coli MG1655 WT; 16-20 h; mode of three experiments
[8] = test system: Haemophilus influenzae ATCC 49247; assay: MIC, broth microdilution (CLSI); type: cell-based; settings: H. influenzae ATCC 49247, 16-20 h, mode of three experiments
[9] = test system: Klebsiella pneumoniae ATCC 700603; assay: MIC, broth microdilution (CLSI); type: cell-based; settings: K. pneumoniae ATCC 700603, 16-20 h, mode of three experiments
[10] = test system: Pseudomonas aeruginosa ATCC 27853; assay: MIC, broth microdilution (CLSI); type: cell-based; settings: P. aeruginosa ATCC 27853, 16-20 h, mode of three experiments
[11] = test system: Staphylococcus aureus ATCC 29213; assay: MIC, broth microdilution (CLSI); type: cell-based; settings: S. aureus ATCC 29213, 16-20 h, mode of three experiments
[12] = test system: Streptococcus pneumoniae ATCC 49619; assay: MIC, broth microdilution (CLSI); type: cell-based; settings: S. pneumoniae ATCC 49619, 16-20 h, mode of three experiments
[13] = test system: E. coli MG1655 S83L; type: cell-based, Escherichia coli; settings: compared to the isogenic parent strain E. coli MG1655; S83L mutation on DNA gyrase subunit GyrA
[14] = test system: E. coli MG1655 D87G; type: cell-based, Escherichia coli; settings: compared to the isogenic parent strain E. coli MG1655; D87G mutation on DNA gyrase subunit GyrA
[15] = test system: HepG2 ATCC HB-8065; assay: Human cell viability assay (CellTiter-Glo); type: cell-based; settings: for IC50: Homo sapiens
Procedure: Compounds are assessed for potential non-specific cytotoxic effects against a human hepatic cell line (HepG2 ATCC HB-8065). HepG2 cells are seeded at 20,000 cells/well in 96-well microtitre plates in minimal essential medium (MEM) supplemented with a final concentration of 10% FBS and 1 mM sodium pyruvate. After 24 h compound dilutions are prepared in Dulbecco's minimum essential media (DMEM) supplemented with final concentrations of 0.001% FBS, 0.3% bovine albumin and 0.02% HEPES and added to cells. Compounds are tested in two-fold serial dilutions over a final concentration range of 1-128 μg/mL in a final DMSO concentration of 1% vol/vol. Chlorpromazine is used as a positive control. Cells are incubated with compound at 37° C. and 5% CO2 for a further 24 h, after which time the CellTiter-Glo reagent (Promega) is added. Luminescence is measured on a BMG Omega plate reader. Data are analysed using GraphPad Prism software to determine the concentration of compound that inhibits cell viability by fifty percent (IC50).

[16] = HepG2 cell viability, 24 h with compound, range 1-128 μg/mL
[17] = Acinetobacter baumannii, NCTC13420, read-out: MIC
[18] = Enterobacter cloacae, NCTC13406, read-out: MIC
[19] = Escherichia coli, ATCC25922, read-out: MIC
[20] = Haemophilus influenzae, ATCC49247, read-out: MIC
[21] = Klebsiella pneumoniae, ATCC700603, read-out: MIC
[22] = Pseudomonas aeruginosa, ATCC27853, read-out: MIC
[23] = Staphylococcus aureus, ATCC29213, read-out: MIC
[24] = Streptococcus pneumoniae, ATCC49619, read-out: MIC
[25] = Acinetobacter baumannii, ATCC19606, read-out: MIC

Row | SMILES | Fold increase in MIC against E. coli MG1655 S83L [13] [fold] | Fold increase in MIC against E. coli MG1655 D87G [14] [fold] | MIC [1, 17] [µg/mL] | MIC [3, 18] [µg/mL] | MIC [4, 19] [µg/mL] | MIC [8, 20] [µg/mL] | MIC [9, 21] [µg/mL] | MIC [10, 22] [µg/mL] | MIC [11, 23] [µg/mL] | MIC [12, 24] [µg/mL] | IC50 [15, 16] [µg/mL] | other results
1 | N#Cc1ccc2ccc(=O)n(CCN3C[C@H]4CN(c5ccc6c(n5)NC(=O)CO6)C(=O)O[C@H]4C3)c2c1 (relative stereo) [Compound 10, rel-1-{2-[(4aS*,7aR*-2-oxo-3-{3-oxo-2H,3H,4H-pyrido[3,2-b][1,4]oxazin-6-yl}-octahydropyrrolo[3,4-e][1,3]oxazin-6-yl]ethyl}-2-oxo-1,2-dihydroquinoline-7-carbonitrile] | 1 | 1 | – | – | – | – | – | – | – | – | – | MIC [1]: B (a MIC of from 1 to 10 is assigned the letter B); MIC [2]: A (an MIC (in μg/mL) of less or equal to 1 is assigned the letter A); MIC [3]: A (an MIC (in μg/mL) of less or equal to 1 is assigned the letter A); MIC [4]: A (an MIC (in μg/mL) of less or equal to 1 is assigned the letter A); MIC [5]: A (an MIC (in μg/mL) of less or equal to 1 is assigned the letter A); MIC ([6]; 16-20 h): B (a MIC of from 1 to 10 is assigned the letter B); MIC [7]: A (an MIC (in μg/mL) of less or equal to 1 is assigned the letter A); MIC [8]: A (an MIC (in μg/mL) of less or equal to 1 is assigned the letter A); MIC [9]: B (a MIC of from 1 to 10 is assigned the letter B); MIC [10]: B (a MIC of from 1 to 10 is assigned the letter B); MIC [11]: A (an MIC (in μg/mL) of less or equal to 1 is assigned the letter A); MIC [12]: A (an MIC (in μg/mL) of less or equal to 1 is assigned the letter A); toxicity against HepG2 human hepatic cell line (in words) [15]: no detectable toxicity; IC50 HepG2 [15, 16]: A (an IC50 of over 100 is assigned the letter A)
2 | C[C@H]1COc2c(N3CCN(C)CC3)c(F)cc3c(=O)c(C(=O)O)cn1c23 [LEV, levofloxacin, reference compound] | 8 | 8 | – | – | – | – | – | – | – | – | – | –
3 | NCCCOc1ccc2ccc(=O)n(CCN3C[C@@H]4CN(c5ccc6c(n5)NC(=O)CO6)C(=O)O[C@H]4C3)c2n1 (relative stereo) [Compound 8] | – | – | > 100 | > 100 | 10 to 100 (≈ 18.7 to 187 µM) | > 100 | > 100 | 10 to 100 (≈ 18.7 to 187 µM) | 1 to 10 (≈ 1.87 to 18.7 µM) | 1 to 10 (≈ 1.87 to 18.7 µM) | > 100 | –
4 | COc1ccc2ccc(=O)n(CCN3CC4CN(c5ccc6c(n5)NC(=O)CO6)C(=O)OC4C3)c2n1 (stereo not drawn) [Compound 16, rel-1-{2-[(4aR*,7aR*)-2-oxo-3-{3-oxo-2H,3H,4H-pyrido[3,2-b][1,4]oxazin-6-yl}-octahydropyrrolo[3,4-e][1,3]oxazin-6-yl]ethyl}-7-methoxy-1,2-dihydro-1,8-naphthyridin-2-one] | – | – | < 1 | 1 to 10 (≈ 2.03 to 20.3 µM) | < 1 | < 1 | 10 to 100 (≈ 20.3 to 203 µM) | 10 to 100 (≈ 20.3 to 203 µM) | < 1 | < 1 | > 100 | MIC [2, 25]: < 1 µg/mL
5 | N#Cc1ccc2ccc(=O)n(CCCN3C[C@H]4CN(c5ccc6c(n5)NC(=O)CO6)C(=O)O[C@@H]4C3)c2c1 (relative stereo) [Compound 14, rel-1-{3-[(4aS*,7aR*)-2-oxo-3-{3-oxo-2H,3H,4H-pyrido[3,2-b]1,4]oxazin-6-yl}-octahydropyrrolo[3,4-e][1,3]oxazin-6-yl]propyl}-2-oxo-1,2-dihydroquinoline-7-carbonitrile] | 4 | 2 | < 1 | 1 to 10 (≈ 2 to 20 µM) | < 1 | < 1 | 1 to 10 (≈ 2 to 20 µM) | 1 to 10 (≈ 2 to 20 µM) | < 1 | < 1 | 10 to 100 (≈ 20 to 200 µM) | MIC [2, 25]: 1 to 10 µg/mL (≈ 2 to 20 µM); MIC ([5]; Escherichia coli, read-out: MIC): < 1 µg/mL; MIC ([6]; Escherichia coli, NCTC13476, 16-20 h, read-out: MIC): 1 to 10 µg/mL (≈ 2 to 20 µM); toxicity against HepG2 human hepatic cell line (in words) ([15]; summary of Table 3): acceptable level of hepatic toxicity
6 | COc1ncc2ccc(=O)n(CCCN3CC4CN(c5ccc6c(n5)NC(=O)CO6)C(=O)OC4C3)c2n1 (stereo not drawn) [Compound 11, rel-(4aS*,7aR*)-6-(3-{2-methoxy-7-oxo-7H,8H-pyrido[2,3-d]pyrimidin-8-yl}propyl)-3-{3-oxo-2H,3H,4H-pyrido[3,2-b][1,4]oxazin-6-yl}-octahydropyrrolo[3,4-e][1,3]oxazin-2-one] | – | – | 10 to 100 (≈ 19.7 to 197 µM) | 1 to 10 (≈ 1.97 to 19.7 µM) | 1 to 10 (≈ 1.97 to 19.7 µM) | < 1 | 10 to 100 (≈ 19.7 to 197 µM) | 10 to 100 (≈ 19.7 to 197 µM) | < 1 | < 1 | 10 to 100 (≈ 19.7 to 197 µM) | toxicity against HepG2 human hepatic cell line (in words) ([15]; summary of Table 3): acceptable level of hepatic toxicity
7 | NCCCOc1ccc2ccc(=O)n(CCCN3CC4CN(c5ccc6c(n5)NC(=O)CO6)C(=O)OC4C3)c2n1 (stereo not drawn) [Compound 6, rel-1-{3-[(4aS*,7aR*)-2-oxo-3-{3-oxo-2H,3H,4H-pyrido[3,2-b][1,4]oxazin-6-yl}-octahydropyrrolo[3,4-e][1,3]oxazin-6-yl]propyl}-7-(3-aminopropoxy)-1,2-dihydro-1,8-naphthyridin-2-one] | – | – | > 100 | > 100 | 1 to 10 (≈ 1.82 to 18.2 µM) | > 100 | > 100 | 10 to 100 (≈ 18.2 to 182 µM) | 1 to 10 (≈ 1.82 to 18.2 µM) | 1 to 10 (≈ 1.82 to 18.2 µM) | > 100 | –
8 | O=C1COc2ccc(N3C[C@@H]4CN(CCCn5c(=O)ccc6ccccc65)C[C@@H]4OC3=O)nc2N1 (relative stereo) [Compound 4, rel-1-{3-[(4aS*,7aR*)-2-oxo-3-{3-oxo-2H,3H,4H-pyrido[3,2-b][1,4]oxazin-6-yl}-octahydropyrrolo[3,4-e][1,3]oxazin-6-yl]propyl}-1,2-dihydroquinolin-2-one] | – | – | < 1 | < 1 | < 1 | – | 1 to 10 (≈ 2.1 to 21 µM) | 1 to 10 (≈ 2.1 to 21 µM) | < 1 | – | > 100 | –
9 | COc1ncc2ccc(=O)n(CCN3C[C@H]4CN(c5ccc6c(n5)NC(=O)CO6)C(=O)O[C@@H]4C3)c2n1 (relative stereo) [Compound 13, rel-(4aS*,7aR*-6-(2-{2-methoxy-7-oxo-7H,8H-pyrido[2,3-d]pyrimidin-8-yl}ethyl)-3-{3-oxo-2H,3H,4H-pyrido[3,2-b][1,4]oxazin-6-yl}-octahydropyrrolo[3,4-e][1,3]oxazin-2-one] | – | – | 10 to 100 (≈ 20.3 to 203 µM) | 10 to 100 (≈ 20.3 to 203 µM) | – | 1 to 10 (≈ 2.03 to 20.3 µM) | 10 to 100 (≈ 20.3 to 203 µM) | 10 to 100 (≈ 20.3 to 203 µM) | < 1 | 1 to 10 (≈ 2.03 to 20.3 µM) | 1 to 10 (≈ 2.03 to 20.3 µM) | –
10 | O=C1COc2ccc(N3C[C@H]4CN(CCn5c(=O)ccc6ccc(OCCO)nc65)C[C@@H]4OC3=O)nc2N1 (relative stereo) [Compound 5] | – | – | > 100 | 10 to 100 (≈ 19.1 to 191 µM) | 10 to 100 (≈ 19.1 to 191 µM) | 1 to 10 (≈ 1.91 to 19.1 µM) | > 100 | 10 to 100 (≈ 19.1 to 191 µM) | < 1 | 1 to 10 (≈ 1.91 to 19.1 µM) | > 100 | –
